# Reference: ChEMBL document CHEMBL5096199, “Structure-Based Optimization of Small Molecule Human Galactokinase Inhibitors” (J Med Chem, 2021)
# pIC50: −log10 of the molar value.
# Key:
# Galactokinase [1] = molecular target: T1, Galactokinase (Homo sapiens, UniProt P51570); test: Inhibition of recombinant human GALK1 using galactose as substrate incubated for 1 hrs in the presence of ATP by Kinase-Glo reagent based luminescence assay; conditions: for IC50: read-out: pIC50 (converted); for pIC50: read-out: IC50
# T1 sequence (P51570 whole entry): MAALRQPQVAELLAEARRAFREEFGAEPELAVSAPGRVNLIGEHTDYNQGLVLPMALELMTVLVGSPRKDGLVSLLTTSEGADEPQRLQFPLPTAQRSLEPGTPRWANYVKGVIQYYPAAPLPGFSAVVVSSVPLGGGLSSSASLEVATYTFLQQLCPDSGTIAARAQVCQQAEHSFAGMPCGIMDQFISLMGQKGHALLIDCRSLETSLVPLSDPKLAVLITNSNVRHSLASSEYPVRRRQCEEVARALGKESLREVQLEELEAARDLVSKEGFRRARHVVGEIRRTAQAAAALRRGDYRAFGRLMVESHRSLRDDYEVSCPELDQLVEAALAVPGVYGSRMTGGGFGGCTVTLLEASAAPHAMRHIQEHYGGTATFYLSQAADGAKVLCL
# physchem = conditions: phosphate buffer, pH 7.4
# Description: Kinetic solubility of the compound in phosphate buffer at pH 7.4 at 150 uM incubated for 6 hrs by shake-flask method
# [2] = Metabolic stability in human liver microsomes assessed as half life; type: ADME, Microsome
# [3] = Permeability of the compound at pH 7.4 measured after 30 mins by PAMPA based LC/MS analysis; type: ADME; conditions: for Papp at 0.5 h: PAMPA, pH 7.4, read-out: permeability
# [4] = Metabolic stability in mouse liver microsome assessed as half life; type: ADME; conditions: microsomes
# [5] = Tmax in CD-1 mouse at 30 mg/kg, po measured upto 24 hrs by LC-MS/MS analysis; type: ADME, organism-based; conditions: in vivo
# [6] = AUCinfinity in CD-1 mouse at 30 mg/kg, po measured upto 24 hrs by LC-MS/MS analysis; type: ADME, organism-based; set-up: time < 24 hrs, dose 30 mg/kg, route po; conditions: in vivo
# [7] = Half life in CD-1 mouse at 30 mg/kg, po measured upto 24 hrs by LC-MS/MS analysis; type: ADME, organism-based; conditions: in vivo
# [8] = Dose normalized AUClast in CD-1 mouse at 30 mg/kg, po measured upto 24 hrs by LC-MS/MS analysis; type: ADME, organism-based; conditions: in vivo
# [9] = C0 in CD-1 mouse at 3 mg/kg, iv measured upto 24 hrs by LC-MS/MS analysis; type: ADME, organism-based; conditions: in vivo
# [10] = Half life in CD-1 mouse at 3 mg/kg, iv measured upto 24 hrs by LC-MS/MS analysis; type: ADME, organism-based; conditions: in vivo
# [11] = Half life in CD-1 mouse at 50 mg/kg, ip measured upto 24 hrs by LC-MS/MS analysis; type: ADME, organism-based; conditions: in vivo
# [12] = AUClast in CD-1 mouse at 50 mg/kg, ip measured upto 24 hrs by LC-MS/MS analysis; type: ADME, organism-based; set-up: time < 24 hrs, dose 50 mg/kg, route ip; conditions: in vivo
# [13] = Plasma protein binding in CD-1 mouse; type: ADME, cell-free
# [14] = Dose normalized AUClast in CD-1 mouse at 50 mg/kg, ip measured upto 24 hrs by LC-MS/MS analysis; type: ADME, organism-based; conditions: in vivo
# [15] = AUCinfinity in CD-1 mouse at 50 mg/kg, ip measured upto 24 hrs by LC-MS/MS analysis; type: ADME, organism-based; set-up: time < 24 hrs, dose 50 mg/kg, route ip; conditions: in vivo
# [16] = Cmax in CD-1 mouse at 50 mg/kg, ip measured upto 24 hrs by LC-MS/MS analysis; type: ADME, organism-based; set-up: dose 50 mg/kg, time < 24 hrs, route ip; conditions: in vivo
# [17] = Cmax in CD-1 mouse at 30 mg/kg, po measured upto 24 hrs by LC-MS/MS analysis; type: ADME, organism-based; set-up: time < 24 hrs, dose 30 mg/kg, route po; conditions: in vivo
# [18] = AUCinfinity in CD-1 mouse at 3 mg/kg, iv measured upto 24 hrs by LC-MS/MS analysis; type: ADME, organism-based; set-up: time < 24 hrs, dose 3 mg/kg, route iv; conditions: in vivo
# [19] = AUClast in CD-1 mouse at 3 mg/kg, iv measured upto 24 hrs by LC-MS/MS analysis; type: ADME, organism-based; set-up: time < 24 hrs, dose 3 mg/kg, route iv; conditions: in vivo
# [20] = Oral bioavailability in CD-1 mouse at 30 mg/kg measured upto 24 hrs by LC-MS/MS analysis; type: ADME, organism-based; conditions: in vivo
# [21] = Drug concentration in CD-1 mouse plasma at 50 mg/kg, ip measured after 7 hrs by LC-MS/MS analysis; type: ADME, organism-based
# [22] = Tmax in CD-1 mouse at 50 mg/kg, ip measured upto 24 hrs by LC-MS/MS analysis; type: ADME, organism-based; conditions: in vivo
# Galactokinase [23] = molecular target: T1, Galactokinase; test: Inhibition of human GALK1 in GALT-deficient human fibroblast assessed as reduction in gal-1P level at 3 uM incubated for 2 to 4 hrs by cellular Gal-1P accumulation assay relative to control; type: cell-based; conditions: time 2-4 hrs
# Galactokinase [24] = molecular target: T1, Galactokinase; test: Inhibition of human GALK1 in GALT-deficient human fibroblast assessed as reduction in gal-1P level incubated for 2 to 4 hrs by cellular Gal-1P accumulation assay; type: cell-based; conditions: dose 0.5-3 µM, time 2-4 hrs, DDE = dose-dependent effect
# [25] = Drug concentration in CD-1 mouse plasma at 3 mg/kg, iv measured after 2 hrs by LC-MS/MS analysis; type: ADME, organism-based; conditions: in vivo, BLD = below limit of detection
# [26] = Observed volume of distribution at steady state in CD-1 mouse at 3 mg/kg, iv measured upto 24 hrs by LC-MS/MS analysis; type: ADME, organism-based; conditions: in vivo, read-out: Vdss
# [27] = AUClast in CD-1 mouse at 30 mg/kg, po measured upto 24 hrs by LC-MS/MS analysis; type: ADME, organism-based; set-up: dose 30 mg/kg, time < 24 hrs, route po; conditions: in vivo
# [28] = Dose normalized AUClast in CD-1 mouse at 3 mg/kg, iv measured upto 24 hrs by LC-MS/MS analysis; type: ADME, organism-based; conditions: in vivo
smiles,measurement,setting,value
CCn1cc(CNC(=O)C2=C(C)NC(Nc3nc4ccc(F)c(N)c4o3)=N[C@@H]2c2ccc(C)cc2Cl)cn1,IC50,Galactokinase [1],1.48 µM
same,"solubility kinetic at 6 h, 150 µM",physchem,2.1 µg/mL
same,t1/2,[2],10 min
same,Papp at 0.5 h,[3],407 ×10⁻⁶ cm/s
same,t1/2,[4],12 min
CCn1cc(CNC(=O)C2=C(C)NC(Nc3nc4ccc(F)c(N)c4o3)=N[C@H]2c2ccc(C)cc2Cl)cn1,pIC50,Galactokinase [1],7.17
same,"solubility kinetic at 6 h, 150 µM",physchem,< 1 µg/mL
same,t1/2,[2],12 min
same,Papp at 0.5 h,[3],773 ×10⁻⁶ cm/s
same,t1/2,[4],7 min
CC1=C(C(=O)Nc2nnc(C)s2)C(c2ccccc2Cl)N=C(Nc2nc3ccccc3o2)N1 (centres undefined),IC50,Galactokinase [1],5.25 µM
CC1=C(C(=O)Nc2cccc(CO)c2)C(c2ccccc2Cl)N=C(Nc2nc3ccccc3o2)N1 (centres undefined),IC50,Galactokinase [1],4.17 µM
CC1=C(C(=O)Nc2cc(C(=O)O)ccn2)C(c2ccccc2Cl)N=C(Nc2nc3c(C)cccc3o2)N1 (centres undefined),IC50,Galactokinase [1],9.33 µM
CCn1cc(CNC(=O)C2=C(C)NC(Nc3nc4cccc(N)c4o3)=NC2c2ccc(C)cc2Cl)cn1 (racemic),"solubility kinetic at 6 h, 150 µM",physchem,2.4 µg/mL
same,t1/2,[2],120 min
same,Papp at 0.5 h,[3],632 ×10⁻⁶ cm/s
CC1=C(C(=O)NCc2cnn(C)c2)C(c2ccc(C)cc2Cl)N=C(Nc2nc3cccc(N)c3o2)N1 (racemic),IC50,Galactokinase [1],0.209 µM
same,"solubility kinetic at 6 h, 150 µM",physchem,8.3 µg/mL
same,t1/2,[2],32 min
same,permeability,"[3]; pampa, pH 7.4, 0.5 h",315 10^-6 cm/s
same,t1/2,[4],11 min
CC1=C(C(=O)Nc2ccccc2)C(c2ccccc2Cl)N=C(Nc2nc3ccccc3o2)N1 (centres undefined),IC50,Galactokinase [1],10.5 µM
CC1=C(C(=O)Nc2cc(C(=O)O)ccn2)C(c2ccc(Cl)cc2Cl)N=C(Nc2nc3ccc(F)cc3o2)N1 (centres undefined),IC50,Galactokinase [1],1.05 µM
COc1ccc(C2N=C(Nc3nc4ccc(F)cc4o3)NC(C)=C2C(=O)Nc2cc(C(=O)O)ccn2)c(Cl)c1 (centres undefined),IC50,Galactokinase [1],0.447 µM
CC1=C(C(=O)Nc2cccc(C(=O)O)c2)C(c2ccccc2Cl)N=C(Nc2nc3ccccc3o2)N1 (centres undefined),IC50,Galactokinase [1],2.63 µM
CC1=C(C(=O)Nc2cccc(F)c2)C(c2ccccc2Cl)N=C(Nc2nc3ccccc3o2)N1 (centres undefined),IC50,Galactokinase [1],6.61 µM
CC1=C(C(=O)NCc2cnn(C)c2)[C@H](c2ccc(C)cc2Cl)N=C(Nc2nc3cccc(N)c3o2)N1,IC50,Galactokinase [1],0.12 µM
same,"solubility kinetic at 6 h, 150 µM",physchem,17 µg/mL
same,t1/2,[2],37 min
same,Papp at 0.5 h,[3],661 ×10⁻⁶ cm/s
same,t1/2,[4],7 min
CC1=C(C(=O)NCc2cnn(C)c2)C(c2ccccc2Cl)N=C(Nc2nc3ccccc3o2)N1 (centres undefined),IC50,Galactokinase [1],1.41 µM
CC1=C(C(=O)NCc2cn(C)cn2)C(c2ccccc2Cl)N=C(Nc2nc3ccccc3o2)N1 (centres undefined),IC50,Galactokinase [1],1.05 µM
COc1ccc2oc(NC3=NC(c4ccccc4Cl)C(C(=O)Nc4cc(C(=O)O)ccn4)=C(C)N3)nc2c1 (centres undefined),IC50,Galactokinase [1],6.61 µM
CC1=C(C(=O)Nc2ccc(O)cc2)C(c2ccccc2Cl)N=C(Nc2nc3ccccc3o2)N1 (centres undefined),IC50,Galactokinase [1],3.72 µM
CC1=C(C(=O)NCc2cnn(C)c2)[C@@H](c2ccc(C)cc2Cl)N=C(Nc2nc3cccc(N)c3o2)N1,IC50,Galactokinase [1],11.7 µM
CC1=C(C(=O)NCc2cccc(C(=O)O)c2)C(c2ccccc2Cl)N=C(Nc2nc3ccccc3o2)N1 (centres undefined),IC50,Galactokinase [1],9.33 µM
CC1=C(C(=O)Nc2cc(C(=O)O)ccn2)C(c2ccccc2Cl)N=C(Nc2nc3cc(N)ccc3o2)N1 (centres undefined),IC50,Galactokinase [1],7.41 µM
CC1=C(C(=O)Nc2cc(C(=O)O)ccn2)C(c2ccc(F)cc2Cl)N=C(Nc2nc3ccc(F)cc3o2)N1 (centres undefined),IC50,Galactokinase [1],0.891 µM
CC1=C(C(=O)NCc2ccc(C(=O)O)cc2)C(c2ccccc2Cl)N=C(Nc2nc3ccccc3o2)N1 (centres undefined),IC50,Galactokinase [1],3.72 µM
CC1=C(C(=O)Nc2cc(C(=O)O)ccn2)C(c2ccccc2Cl)N=C(Nc2nc3cccc(C)c3o2)N1 (centres undefined),IC50,Galactokinase [1],0.933 µM
COC(=O)c1ccc(NC(=O)C2=C(C)NC(Nc3nc4ccccc4o3)=NC2c2ccccc2Cl)cc1 (centres undefined),pIC50,Galactokinase [1],5.36
same,IC50,Galactokinase [1],4.47 µM
CC1=C(C(=O)NCc2ccc(CO)cc2)C(c2ccccc2Cl)N=C(Nc2nc3ccccc3o2)N1 (centres undefined),IC50,Galactokinase [1],6.61 µM
CC1=C(C(=O)Nc2cc(C(=O)O)ccn2)C(c2ccccc2Cl)N=C(Nc2nc3cccc(N)c3o2)N1 (centres undefined),IC50,Galactokinase [1],0.234 µM
CC1=C(C(=O)Nc2cc(C(=O)O)ccn2)C(c2ccccc2Br)N=C(Nc2nc3ccc(F)cc3o2)N1 (centres undefined),IC50,Galactokinase [1],0.562 µM
CC1=C(C(=O)Nc2cc(C(=O)O)ccn2)C(c2ccc(N3CCOCC3)cc2Cl)N=C(Nc2nc3ccc(F)cc3o2)N1 (centres undefined),IC50,Galactokinase [1],0.447 µM
CC1=C(C(=O)NCc2cnn(C)c2)C(c2ccc(C)cc2Cl)N=C(Nc2nc3ccc(F)c(N)c3o2)N1 (racemic),Tmax,[5],40.2 min
same,AUC,[6],16.06 µM·h
same,t1/2,[7],136 min
same,pIC50,Galactokinase [1],7.32
same,AUClast/dose,[8],278 ng·h/mL/(mg/kg)
same,"solubility kinetic at 6 h, 150 µM",physchem,1.3 µg/mL
same,C0 at 24 h,[9],8.25 µM
same,t1/2,[10],24.6 min
same,t1/2,[11],102 min
same,AUClast,[12],80.36 µM·h
same,PPB,[13],98.74%
same,AUClast/dose,[14],841 ng·h/mL/(mg/kg)
same,AUC,[15],80.36 µM·h
same,Cmax,[16],21.9 µM
same,Cmax,[17],7.02 µM
same,Papp at 0.5 h,[3],485 ×10⁻⁶ cm/s
same,AUC,[18],4.81 µM·h
same,AUClast,[19],4.66 µM·h
same,F,[20],33%
same,concentration at 7 h,[21],> 1 µM
same,Tmax,[22],79.98 min
same,inhibition,Galactokinase [23],50%
same,inhibition,Galactokinase [24],Dde
same,Cp,[25],Bld
same,Vd,[26],0.652 L/kg
same,t1/2,[4],14 min
same,AUClast,[27],15.96 µM·h
same,AUClast/dose,[28],812 ng·h/mL/(mg/kg)
CC1=C(C(=O)Nc2cccnc2)C(c2ccccc2Cl)N=C(Nc2nc3ccccc3o2)N1 (centres undefined),IC50,Galactokinase [1],6.61 µM
CC1=C(C(=O)NCc2cccc(CO)c2)C(c2ccccc2Cl)N=C(Nc2nc3ccccc3o2)N1 (centres undefined),IC50,Galactokinase [1],4.68 µM
CC1=C(C(=O)Nc2ccccc2Cl)C(c2ccccc2Cl)N=C(Nc2nc3ccccc3o2)N1 (centres undefined),IC50,Galactokinase [1],4.17 µM
CC1=C(C(=O)Nc2nncs2)C(c2ccccc2Cl)N=C(Nc2nc3ccccc3o2)N1 (centres undefined),pIC50,Galactokinase [1],5.46
same,IC50,Galactokinase [1],3.72 µM
CCn1cc(CNC(=O)C2=C(C)NC(Nc3nc4ccc(F)c(N)c4o3)=NC2c2ccc(C)cc2Cl)cn1 (racemic),pIC50,Galactokinase [1],7.32
same,"solubility kinetic at 6 h, 150 µM",physchem,< 1 µg/mL
same,t1/2,[2],8 min
same,Papp at 0.5 h,[3],410 ×10⁻⁶ cm/s
same,t1/2,[4],14 min
CC1=C(C(=O)Nc2cc(C(=O)O)ccn2)C(c2ccccc2Cl)N=C(Nc2nc3cc(Cl)ccc3o2)N1 (centres undefined),IC50,Galactokinase [1],2.63 µM
CC1=C(C(=O)Nc2cc(C(=O)O)ccn2)C(c2ccccc2Cl)N=C(Nc2nc3cccc(F)c3o2)N1 (centres undefined),IC50,Galactokinase [1],1.78 µM
CC1=C(C(=O)Nc2cc(C(=O)O)ccn2)C(c2ccccc2Cl)N=C(Nc2nc3c(N)cccc3o2)N1 (centres undefined),IC50,Galactokinase [1],19.5 µM
COc1ccc2nc(NC3=NC(c4ccccc4Cl)C(C(=O)Nc4cc(C(=O)O)ccn4)=C(C)N3)oc2c1 (centres undefined),IC50,Galactokinase [1],19.5 µM
